Data published in patent publication US20170095573A1, “METHODS AND COMPOSITIONS FOR TREATING ALLERGY AND INFLAMMATORY DISEASES” (Baylor Research Institute, priority 2014, published 2017).

How the values were obtained:
[1] = tested on: dendritic cells and CD4+ T cells; allergic patient PBMCs; experiment: Th2 responses after curdlan activation of DCs / allergic patient PBMCs; type: cell-based, human
[2] = tested on: naïve CD4+ T cells co-cultured with TSLP-activated mDCs; experiment: TSLP-activated mDC-induced CD4+ T cell responses (co-culture with naive CD4+ T cells, cytokine staining / supernatant); type: cell-based, human; details: 20 ug/ml, naïve CD4+ T cells 7 days, PMA/ionomycin 6 h, intracellular staining
Procedure: (FIG. 10A) Intracellular cytokine levels were analyzed by intracellular staining in cells stimulated with PMA/Ionomycin for 6 hours and with brefeldinA for 4 hrs. (FIG. 10B) Cell supernatant cytokine levels were measured by stimulating the cells with αCD3/CD28 beads for 48 hrs.
It was next tested whether anti-Dectin-1-Pam3 conjugate can indeed suppress TSLP-activated mDC-induced Th2 type T cell responses. 5×10^3 mDCs were cultured overnight with TSLP in the presence or absence of the same concentration (20 ug/ml) of anti-Dectin-1-Pam3 conjugate, combination of anti-Dectin-1 and Pam3, or Pam 3. 2×10^5 purified naïve CD4+ T cells were then added into the culture. After 7 days, T cells were stimulated for 6 h with PMA/ionomycin in the presence of brefeldin A. Cells were then stained for intracellular expression of IL-13 (Th2 type cytokine) and IFNγ (Th2 type cytokine).
Next, the Th2-type T cells were tested. mDCs were first primed with 40 ng/mL TSLP and either αdectin-1 or αDectin-1-pam3 at 20 ug/mL After 24 hrs, naïve CD4+ T cells are added to the mDCs and cultured for an additional 6 days. Intracellular cytokine levels were analyzed by intracellular staining in cells stimulated with PMA/Ionomycin for 6 hours and with brefeldinA for 4 hrs (FIG. 10A). Cell supernatant cytokine levels were measured by stimulating the cells with αCD3/CD28 beads for 48 hrs (FIG. 10B).

Compound | Antigen-specific TH2 responses ([1]; Flu HA1 antigen, DCs and CD4+ T cells, restimulation with HA-1-derived peptides) | Th2-type T cell responses ([1]; allergic patient PBMCs) | Percentage of IL-13+ cells ([1]; restimulation with PMA/Ionomycin, immunostaining) | Total TH2 responses ([1]; restimulation with PMA/Ionomycin, immunostaining for IL-13 and IL-5) | IL-13+CD4+ T cell responses [2] [%]
curdlan | decreased antigen-specific TH2 responses | significantly down-regulated Th2-type T cell responses | decreased significantly | downregulates total TH2 responses | 
CCCCCCCCCCCCCCCC(=O)N[C@@H](CSCC(COC(=O)CCCCCCCCCCCCCCC)OC(=O)CCCCCCCCCCCCCCC)C(=O)N[C@@H](CO)C(=O)N[C@@H](CCCCN)C(=O)N[C@@H](CCCCN)C(=O)N[C@@H](CCCCN)C(=O)N[C@@H](CCCCN)C(=O)O (mixture of isomers) [Pam3, N-Palmitoyl-S-[2,3-bis(palmitoyloxy)-(2RS)-propyl]-[R]-cysteinyl-[S]-seryl-[S]-lysyl-[S]-lysyl-[S]-lysyl-[S]-lysine] |  |  |  |  | 3.47
